Measured values published in patent US12409172B2, “Dosage regimen” (UNION therapeutics A/S, priority 2023, dated 2025).

Tests used:
[1] = system: pruritus (itch) associated with atopic dermatitis; experiment: Phase 2b study in atopic dermatitis (Examples 8, 9): ≥4-point improvement in peak pruritus NRS (PPNRS); assay type: in vivo, human
Method: The severity of itch (pruritus) due to AD will be assessed using a horizontal 11-point NRS. Patients will be asked to assess their “worst itching due to AD over the past 24 hours” on an NRS anchored by the terms “no itching” (0) and “worst possible itching” (10). The item will be completed at each visit via an application on an electronic device in the clinic or the patient's own electronic device from baseline through Week 20.
The binary secondary efficacy endpoint, 4-point improvement in the peak pruritis numerical rating scale (“responders”), was analysed using the Mantel-Haenszel (MH) test and Fisher's exact tests, comparing the proportions of PPNRS responders in each active treatment group with placebo (intent-to-treat (ITT) population).
The ITT population included all randomized subjects who received at least 1 dose of orismilast. The treatment group assignment was designated according to initial randomization. The ITT population served as the basis for the analysis of efficacy.
PPNRS assesses the severity of itch (pruritus) due to atopic dermatitis using a horizontal 11-point NRS. […]
In FIG. 34, “Observed” or “Obs” refers to all subjects in the ITT Population with a recorded PPNRS score, i.e. if the PPNRS score is missing the value was not imputed. […]

[2] = system: adults with moderate to severe atopic dermatitis; experiment: Phase 2b dose-ranging study in atopic dermatitis (Example 8): efficacy (EASI, IGA-AD, PGIC); assay type: in vivo, human; settings: for patients achieving IGA0/1 responses at week 16: MI
Method: A 16-week, phase 2b, double-blinded, placebo-controlled, dose-finding study assessing efficacy and safety of orismilast modified-release (MR) tablets in adults with moderate-to-severe atopic dermatitis was carried out (NCT05469464). Patients were randomized (1:1:1:1) to orismilast 20, 30, 40 mg or placebo, twice daily. Randomized and dosed patients were included in the Intent-to-Treat Population (used for efficacy and safety). Missing data was handled using Multiple Imputation (MI) for the analysis of primary and secondary efficacy endpoints.
The exploratory objectives are to: • Evaluate pharmacokinetic (PK) and pharmacodynamic parameters relevant to AD • Evaluate the effect of orismilast on the pulmonary status and course of the disease in patients with asthma Primary Endpoint • Percentage change in Eczema Area and Severity Index (EASI) score from Baseline at Week 16. […]

Structure (SMILES): O=C(Cc1c(Cl)c[n+]([O-])cc1Cl)c1ccc(OC(F)F)c2c1OC1(CCS(=O)(=O)CC1)O2 [orismilast, 2-(3,5-dichloro-1-oxidopyridin-1-ium-4-yl)-1-[7-(difluoromethoxy)-1′,1′-dioxospiro[1,3-benzodioxole-2,4′-thiane]-4-yl]ethanone]
- ≥4-point reduction in itch NRS / PPNRS at week 2 compared to placebo ([1]; all active arms (20, 30, 40 mg BID), MI p<0.05): significant
- ≥4 point reduction in PPNRS at week 16 compared to placebo ([1]; all active arms, subjects having severe itch (PPNRS>7) at baseline, Observed p<0.05 or p<0.1): statistically significant improvement
- patients achieving IGA0/1 responses at week 16 ([2]; 20 mg BID (n=58)): 26.3%
- patients achieving IGA0/1 responses at week 16 ([2]; 30 mg BID (n=61)): 24.3%
- mean percentage change in EASI at week 16 ([2]; 30 mg BID, p>0,05): −52.2%
- patients achieving IGA0/1 responses at week 16 ([2]; 40 mg BID (n=59)): 30.9%
- Patient Global Impression of Change of "much improved" or "very much improved" compared to placebo at week 16 ([2]; active arms (20, 30, 40 mg BID)): improved significantly
